Test results: article PMC4365270 (Cancer Chemotherapy and Pharmacology, 2015)
“Also recorded” adds a separate entry of the source.

How the values were obtained:
[1] = target: T1, cIAP-1 (Homo sapiens, UniProt Q13490); experiment: cIAP1 degradation in PBMCs, Western blot; type: in vivo
T1 construct: endogenous in cells; host or cells: peripheral blood mononuclear cells (PBMCs) of patients
Experimental: (§1) Pharmacokinetic samples were taken from all patients on day 1 (predose, 0.5, 1, 2, 3, 4, 6, 8, 12, 18 h postdose) and on day 5 (predose, 0.5, 1, 2, 3, 4, 6, 8 h postdose) of the first cycle. In addition, for exploratory PD analysis of IAP inhibition and activation of apoptosis, optional skin and tumor biopsies were taken from consenting patients on days 1 (predose) and 5 and blood samples on day 1 (predose, 1, 3, 6, 8, 12 h postdose), day 2 (predose), and day 5 (3 h postdose).
(§2) cIAP-1 levels were measured in tumor tissue and surrogate tissue as available. Peripheral blood mononuclear cells (PBMCs) were analyzed for DEBIO1143-induced cIAP-1 degradation. Plasma native cytokeratin-18 (M65) or caspase-3 generated cytokeratin-18 fragments (M30), interleukin 8 (IL8), chemokine ligand 2 (CCL2, MCP1), and tumor necrosis factor α (TNFα) were measured by ELISA as markers of epithelial cell death and inflammation on days 1 (predose, 1, 3, 6, and 12 h postdose), 2, and 5.
(§3) For the detection of cIAP-1 in paraffin-embedded human tissue, a validated immunohistochemical (IHC) assay was used. DEBIO1143-induced cIAP-1 degradation was measured in PBMCs using Western blot. Plasma biomarkers were measured through commercial ELISAs. All laboratory analyses were performed by MPI Research, Inc. (PK) and Mosaic Laboratory, LLC (PD).

[2] = target: T1, cIAP-1; experiment: cIAP1 IHC in skin and tumor biopsies; type: in vivo
Experimental: as §1, §2, §3

[3] = system: chemokine ligand 2 (CCL2, MCP1); experiment: Plasma CCL2 ELISA; type: in vivo, human
Experimental: as §2, with “([…])” for “(M65)”, “5. […] For the detection of cIAP-1 in paraffin-embedded human tissue, a validated immunohistochemical (IHC) assay was used. DEBIO1143-induced cIAP-1 degradation was measured in PBMCs using Western blot. Plasma biomarkers were measured through commercial ELISAs. All laboratory analyses were performed by MPI Research, Inc. (PK) and Mosaic Laboratory, LLC (PD).” for “5.”

[4] = system: tumor necrosis factor α (TNFα); experiment: Plasma TNFα ELISA; parameters: species or system human; settings: in vivo
Experimental: as §2, with “([…])” for “(M65)”, “5. […] For the detection of cIAP-1 in paraffin-embedded human tissue, a validated immunohistochemical (IHC) assay was used. DEBIO1143-induced cIAP-1 degradation was measured in PBMCs using Western blot. Plasma biomarkers were measured through commercial ELISAs. All laboratory analyses were performed by MPI Research, Inc. (PK) and Mosaic Laboratory, LLC (PD).” for “5.”

[5] = system: cIAP-1; parameters: method as in PMID 21443232; settings: cited from earlier work

T1 sequence (Q13490 whole entry): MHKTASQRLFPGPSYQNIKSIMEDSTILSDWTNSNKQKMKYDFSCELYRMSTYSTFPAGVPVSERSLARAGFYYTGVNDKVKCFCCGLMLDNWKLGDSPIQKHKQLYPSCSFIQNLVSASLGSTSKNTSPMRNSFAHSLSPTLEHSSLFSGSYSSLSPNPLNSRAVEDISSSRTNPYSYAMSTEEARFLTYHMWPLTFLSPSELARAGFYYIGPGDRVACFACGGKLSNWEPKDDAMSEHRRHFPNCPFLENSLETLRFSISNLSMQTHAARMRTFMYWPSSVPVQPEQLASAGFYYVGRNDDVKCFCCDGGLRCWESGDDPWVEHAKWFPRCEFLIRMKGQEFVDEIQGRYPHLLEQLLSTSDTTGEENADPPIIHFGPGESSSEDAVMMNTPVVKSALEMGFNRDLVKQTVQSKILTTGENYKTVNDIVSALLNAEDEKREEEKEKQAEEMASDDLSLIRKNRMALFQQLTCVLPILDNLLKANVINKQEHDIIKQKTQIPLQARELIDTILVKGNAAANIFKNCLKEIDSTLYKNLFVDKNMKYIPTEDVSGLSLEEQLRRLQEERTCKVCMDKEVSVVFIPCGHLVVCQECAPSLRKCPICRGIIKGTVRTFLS

CN[C@@H](C)C(=O)N[C@H]1CN(C(=O)CC(C)C)CC[C@H]2CC[C@@H](C(=O)NC(c3ccccc3)c3ccccc3)N2C1=O [DEBIO1143]
cIAP1/Actin in PBMC, mean (SD) ([1]; 120 mg, 1h, N=1): 2% (0) % from baseline | cIAP1/Actin in PBMC, median (range) ([1]; 120 mg, 1h, N=1): 2 (2-2) % from baseline | cIAP1/Actin in PBMC, mean (SD) ([1]; 120 mg, 3h, N=1): 2% (0) % from baseline | cIAP1/Actin in PBMC, median (range) ([1]; 120 mg, 3h, N=1): 2 (2-2) % from baseline | cIAP1/Actin in PBMC, mean (SD) ([1]; 120 mg, 6h, N=1): 4% (0) % from baseline | cIAP1/Actin in PBMC, median (range) ([1]; 120 mg, 6h, N=1): 4 (4-4) % from baseline | cIAP1/Actin in PBMC, mean (SD) ([1]; 120 mg, 12h, N=1): 3% (0) % from baseline | cIAP1/Actin in PBMC, median (range) ([1]; 120 mg, 12h, N=1): 3 (3-3) % from baseline | cIAP1/Actin in PBMC, mean (SD) ([1]; 120 mg, 24h, N=1): 4% (0) % from baseline | cIAP1/Actin in PBMC, median (range) ([1]; 120 mg, 24h, N=1): 4 (4-4) % from baseline | cIAP1/Actin in PBMC, mean (SD) ([1]; 120 mg, 99h, N=1): 5% (0) % from baseline | cIAP1/Actin in PBMC, median (range) ([1]; 120 mg, 99h, N=1): 5 (5-5) % from baseline | cIAP1/Actin in PBMC, mean (SD) ([1]; 180 mg, 1h, N=6): 34% (31) % from baseline | cIAP1/Actin in PBMC, median (range) ([1]; 180 mg, 1h, N=6): 33 (0-78) % from baseline | cIAP1/Actin in PBMC, mean (SD) ([1]; 180 mg, 3h, N=6): 20% (25) % from baseline | cIAP1/Actin in PBMC, median (range) ([1]; 180 mg, 3h, N=6): 12 (3-68) % from baseline | cIAP1/Actin in PBMC, mean (SD) ([1]; 180 mg, 6h, N=7): 6% (8) % from baseline | cIAP1/Actin in PBMC, median (range) ([1]; 180 mg, 6h, N=7): 5 (0-24) % from baseline | cIAP1/Actin in PBMC, mean (SD) ([1]; 180 mg, 12h, N=3): 8% (7) % from baseline | cIAP1/Actin in PBMC, median (range) ([1]; 180 mg, 12h, N=3): 5 (4-16) % from baseline | cIAP1/Actin in PBMC, mean (SD) ([1]; 180 mg, 24h, N=6): 9% (10) % from baseline | cIAP1/Actin in PBMC, median (range) ([1]; 180 mg, 24h, N=6): 5 (3-29) % from baseline | cIAP1/Actin in PBMC, mean (SD) ([1]; 180 mg, 99h, N=6): 2% (2) % from baseline | cIAP1/Actin in PBMC, median (range) ([1]; 180 mg, 99h, N=6): 0 (0-5) % from baseline | cIAP1/Actin in PBMC, mean (SD) ([1]; 260 mg, 1h, N=3): 39% (33) % from baseline | cIAP1/Actin in PBMC, median (range) ([1]; 260 mg, 1h, N=3): 44 (4-70) % from baseline | cIAP1/Actin in PBMC, mean (SD) ([1]; 260 mg, 3h, N=3): 45% (50) % from baseline | cIAP1/Actin in PBMC, median (range) ([1]; 260 mg, 3h, N=3): 24 (9-103) % from baseline | cIAP1/Actin in PBMC, mean (SD) ([1]; 260 mg, 6h, N=3): 9% (4) % from baseline | cIAP1/Actin in PBMC, median (range) ([1]; 260 mg, 6h, N=3): 8 (5-13) % from baseline | cIAP1/Actin in PBMC, mean (SD) ([1]; 260 mg, 12h, N=2): 14% (5) % from baseline | cIAP1/Actin in PBMC, median (range) ([1]; 260 mg, 12h, N=2): 14 (10-17) % from baseline | cIAP1/Actin in PBMC, mean (SD) ([1]; 260 mg, 24h, N=3): 9% (7) % from baseline | cIAP1/Actin in PBMC, median (range) ([1]; 260 mg, 24h, N=3): 6 (5-16) % from baseline | cIAP1/Actin in PBMC, mean (SD) ([1]; 260 mg, 99h, N=3): 6% (3) % from baseline | cIAP1/Actin in PBMC, median (range) ([1]; 260 mg, 99h, N=3): 6 (3-8) % from baseline | cIAP1/Actin in PBMC, mean (SD) ([1]; 400 mg, 1h, N=1): 14% (0) % from baseline | cIAP1/Actin in PBMC, median (range) ([1]; 400 mg, 1h, N=1): 14 (14-14) % from baseline | cIAP1/Actin in PBMC, mean (SD) ([1]; 400 mg, 3h, N=2): 4% (2) % from baseline | cIAP1/Actin in PBMC, median (range) ([1]; 400 mg, 3h, N=2): 4 (3-6) % from baseline | cIAP1/Actin in PBMC, mean (SD) ([1]; 400 mg, 6h, N=2): 6% (4) % from baseline | cIAP1/Actin in PBMC, median (range) ([1]; 400 mg, 6h, N=2): 6 (2-9) % from baseline | cIAP1/Actin in PBMC, mean (SD) ([1]; 400 mg, 24h, N=2): 19% (26) % from baseline | cIAP1/Actin in PBMC, median (range) ([1]; 400 mg, 24h, N=2): 19 (0-37) % from baseline | cIAP1/Actin in PBMC, mean (SD) ([1]; 400 mg, 99h, N=2): 28% (31) % from baseline | cIAP1/Actin in PBMC, median (range) ([1]; 400 mg, 99h, N=2): 28 (6-51) % from baseline | cIAP1/Actin in PBMC, mean (SD) ([1]; 600 mg, 1h, N=3): 27% (9) % from baseline | cIAP1/Actin in PBMC, median (range) ([1]; 600 mg, 1h, N=3): 25 (20-38) % from baseline | cIAP1/Actin in PBMC, mean (SD) ([1]; 600 mg, 3h, N=3): 24% (11) % from baseline | cIAP1/Actin in PBMC, median (range) ([1]; 600 mg, 3h, N=3): 18 (17-36) % from baseline | cIAP1/Actin in PBMC, mean (SD) ([1]; 600 mg, 6h, N=3): 20% (11) % from baseline | cIAP1/Actin in PBMC, median (range) ([1]; 600 mg, 6h, N=3): 17 (11-33) % from baseline | cIAP1/Actin in PBMC, mean (SD) ([1]; 600 mg, 12h, N=1): 36% (0) % from baseline | cIAP1/Actin in PBMC, median (range) ([1]; 600 mg, 12h, N=1): 36 (36-36) % from baseline | cIAP1/Actin in PBMC, mean (SD) ([1]; 600 mg, 24h, N=3): 29% (36) % from baseline | cIAP1/Actin in PBMC, median (range) ([1]; 600 mg, 24h, N=3): 14 (3-70) % from baseline | cIAP1/Actin in PBMC, mean (SD) ([1]; 600 mg, 99h, N=2): 14% (19) % from baseline | cIAP1/Actin in PBMC, median (range) ([1]; 600 mg, 99h, N=2): 14 (0-28) % from baseline | cIAP1/Actin in PBMC, mean (SD) ([1]; 900 mg, 1h, N=5): 11% (8) % from baseline | cIAP1/Actin in PBMC, median (range) ([1]; 900 mg, 1h, N=5): 9 (2-24) % from baseline | cIAP1/Actin in PBMC, mean (SD) ([1]; 900 mg, 3h, N=4): 15% (23) % from baseline | cIAP1/Actin in PBMC, median (range) ([1]; 900 mg, 3h, N=4): 3 (3-49) % from baseline | cIAP1/Actin in PBMC, mean (SD) ([1]; 900 mg, 6h, N=4): 14% (13) % from baseline | cIAP1/Actin in PBMC, median (range) ([1]; 900 mg, 6h, N=4): 11 (1-32) % from baseline | cIAP1/Actin in PBMC, mean (SD) ([1]; 900 mg, 12h, N=2): 9% (2) % from baseline | cIAP1/Actin in PBMC, median (range) ([1]; 900 mg, 12h, N=2): 9 (7-10) % from baseline | cIAP1/Actin in PBMC, mean (SD) ([1]; 900 mg, 24h, N=4): 11% (18) % from baseline | cIAP1/Actin in PBMC, median (range) ([1]; 900 mg, 24h, N=4): 3 (0-38) % from baseline | cIAP1/Actin in PBMC, mean (SD) ([1]; 900 mg, 99h, N=4): 7% (6) % from baseline | cIAP1/Actin in PBMC, median (range) ([1]; 900 mg, 99h, N=4): 8 (0-14) % from baseline | cIAP1 in PBMCs (Western blot) ([1]; patients with detectable cIAP1, doses above 80 mg): decreased; also recorded: rapid and persistent cIAP1 degradation | cIAP1 level in skin biopsies (IHC) ([2]; 12 patients): trend for a decrease | Immunoactivity of cIAP1 in tumor biopsy (IHC) ([2]; melanoma patient, 120 mg/day, day 5, predose 150): 130 | Percentage of cIAP1-positive cells in tumor biopsies ([2]; melanoma patient, 400 mg/d): only negligible effect | Patients with increased plasma CCL2 ([3]; 900 mg): five out of six | Plasma CCL2, mean increase ([3]; 900 mg, six patients): 45% | Plasma CCL2 increase, range ([3]; 900 mg, six patients): −6 to 54% | Plasma CCL2 increase, significance ([3]; 3 and 6 h postdose, p < 0.0001): significant | Patients with increased plasma CCL2 ([3]; all dose levels, 25 patients): 14 | Patients with detectable TNFα showing some increase postdose [4]: four out of five | cIAP-1 degradation [5]: rapidly induced degradation of cIAP-1
